Reference: patent US20170197985A1, “SODIUM (2R,5S,13AR)-7,9-DIOXO-10-((2,4,6-TRIFLUOROBENZYL)CARBAMOYL)-2,3,4,5,7,9,13,13A-OCTAHYDRO-2,5-METHANOPYRIDO[1',2':4,5]PYRAZINO[2,1-B][1,3]OXAZEPIN-8-OLATE” (Gilead Sciences, Inc., priority 2014, published 2017)

Key:
[1] = Stability on storage under accelerated conditions (% AN, % LS); type: physicochemical
Procedure: The stability of sodium (2R,5S,13aR)-7,9-dioxo-10-((2,4,6-trifluorobenzyl)carbamoyl)-2,3,4,5,7,9,13,13a-octahydro-2,5-methanopyrido[1′,2′:4,5]pyrazino[2,1-b][1,3]oxazepin-8-olate Form I was tested. […] In Table 5, AN refers to area normalization and is the relative peak area of the active with respect to other impurities and components contained in the sample. LS refers to labile strength and is the amount of active present relative to the theoretical amount.

[2] = Bioavailability after a single oral tablet in beagle dogs (plasma LC/MS/MS, non-compartmental PK); type: in vivo; conditions: dog, male beagle dogs, fasted, pentagastrin pre-treated, single 25 mg strength tablet (dry granulation, 30% active); for bioavailability: read-out: % F (oral bioavailability)
From the text: The bioavailability of sodium (2R,5S,13aR)-7,9-dioxo-10-((2,4,6-trifluorobenzyl)carbamoyl)-2,3,4,5,7,9,13,13a-octahydro-2,5-methanopyrido[1′,2′:4,5]pyrazino[2,1-b][1,3]oxazepin-8-olate (Formula II) Form I was compared to the bioavailability of (2R,5S,13aR)-8-hydroxy-7,9-dioxo-N-(2,4,6-trifluorobenzyl)-2,3,4,5,7,9,13,13a-octahydro-2,5-methanopyrido[1′,2′:4,5]pyrazino[2,1-b][1,3]oxazepine-10-carboxamide (Formula I) Form III.
Each dosing group consisted of 6 male, non-naïve purebred beagle dogs. At dosing, the animals weighed between 10 to 13 kg. The animals were fasted overnight prior to dose administration and up to 4 hr after dosing. Each subject was pre-treated with pentagastrin (6 μg/kg) and dosed 30 minutes later with a single 25 mg strength tablet of Formula II Form I or Formula I Form III. Each subject was given 10 mL of water to aid in swallowing.
Serial venous blood samples (approximately 1 mL each) were taken from each animal at 0, 0.250, 0.483, 0.583, 0.750, 1.00, 1.50, 2.00, 4.00, 8.00, 12.0, and 24.0 hours after dosing. The blood samples were collected into Vacutainer™ tubes containing EDTA-K2 as the anti-coagulant and were immediately placed on wet ice pending centrifugation for plasma. An LC/MS/MS method was used to measure the concentration of the test compound in plasma. An aliquot of 100 μL of each plasma sample was added to a clean 96 well plate, and 400 μL of cold acetonitrile/internal standard solution (ACN)/(ISTD) was added. After protein precipitation, an aliquot of 110 μL of the supernatant was transferred to a clean 96-well plate and diluted with 300 μL of water. An aliquot of 25 μL of the above solution was injected into a TSQ Quantum Ultra LC/MS/MS system utilizing a Hypersil Gold C18 HPLC column (50×3.0 mm, 5 μm; Thermo-Hypersil Part #25105-053030). An Agilent 1200 series binary pump (P/N G1312A Bin Pump) was used for elution and separation, and an HTS Pal autosampler (LEAP Technologies, Carrboro, N.C.) was used for sample injection. A TSQ Quantum Ultra triple quadrupole mass spectrometer was utilized in selective reaction monitoring mode (Thermo Finnigan, San Jose, Calif.). Liquid chromatography was performed using two mobile phases: mobile phase A contained 1% acetonitrile in 2.5 mM ammonium formate aqueous solution with pH of 3.0, and mobile phase B contained 90% acetonitrile in 10 mM ammonium formate with pH of 4.6. Non-compartmental pharmacokinetic analysis was performed on the plasma concentration-time data. The resulting data are shown in Table 3: F (%) refers to oral bioavailability; AUC refers to area under the curve and is a measure of total plasma exposure of the indicated compound; Cmax refers to the peak plasma concentration of the compound after administration.

HIV = conditions: as discussed in co-pending U.S. Ser. No. 14/133,855 and PCT US2013/076367; cited from earlier work

For O=C(NCc1c(F)cc(F)cc1F)c1cn2c(c([O-])c1=O)C(=O)N1[C@H]3CC[C@H](C3)O[C@@H]1C2.[Na+] [Formula II Form I, sodium (2R,5S,13aR)-7,9-dioxo-10-((2,4,6-trifluorobenzyl)carbamoyl)-2,3,4,5,7,9,13,13a-octahydro-2,5-methanopyrido[1′,2′:4,5]pyrazino[2,1-b][1,3]oxazepin-8-olate], the “% AN (area normalization)” value ([1]; 25° C./60% RH (open), 1 week) was 95.0 ± 0.2%, the “% LS (labile strength)” value ([1]; 25° C./60% RH (open), 1 week) was 104.8 ± 0.1% and the “% AN (area normalization)” value ([1]; 25° C./60% RH (open), 2 weeks) was 94.4 ± 0.1%. For the same compound, the “% LS (labile strength)” value ([1]; 25° C./60% RH (open), 2 weeks) was 101.6 ± 0.1%, the “% AN (area normalization)” value ([1]; 25° C./60% RH (open), 4 weeks) was 94.4 ± 0.0% and the “% LS (labile strength)” value ([1]; 25° C./60% RH (open), 4 weeks) was 103.0 ± 0.8%. For the same compound, the “% AN (area normalization)” value ([1]; 40° C. (closed), 1 week) was 95.2 ± 0.3%, the “% LS (labile strength)” value ([1]; 40° C. (closed), 1 week) was 108.0 ± 0.2% and the “% AN (area normalization)” value ([1]; 40° C. (closed), 2 weeks) was 94.4 ± 0.1%. For the same compound, the “% LS (labile strength)” value ([1]; 40° C. (closed), 2 weeks) was 102.4 ± 0.1%, the “% AN (area normalization)” value ([1]; 40° C. (closed), 4 weeks) was 94.4 ± 0.0% and the “% LS (labile strength)” value ([1]; 40° C. (closed), 4 weeks) was 97.0 ± 0.0%. The “% AN (area normalization)” value ([1]; 40° C./75% RH (open), 1 week) was 94.9 ± 0.1%, the “% LS (labile strength)” value ([1]; 40° C./75% RH (open), 1 week) was 103.3 ± 6.9% and the “% AN (area normalization)” value ([1]; 40° C./75% RH (open), 2 weeks) was 94.4 ± 0.0%. For the same compound, the “% LS (labile strength)” value ([1]; 40° C./75% RH (open), 2 weeks) was 108.5 ± 0.4%, the “% AN (area normalization)” value ([1]; 40° C./75% RH (open), 4 weeks) was 94.4 ± 0.0% and the “% LS (labile strength)” value ([1]; 40° C./75% RH (open), 4 weeks) was 102.9 ± 0.1%. For the same compound, the “% AN (area normalization)” value ([1]; Starting material, 0 weeks) was 94.4 ± 0.1%, the “% LS (labile strength)” value ([1]; Starting material, 0 weeks) was 99.8 ± 0.1% and the “Stability (in words)” value ([1]; after four weeks of storage under accelerated conditions) was “stable”. The AUC(0-t) [2] was 71 ± 16 µM·h, the Cmax [2] was 13 ± 1 µM and the bioavailability [2] was 28 ± 7%.

Work on O=C(NCc1c(F)cc(F)cc1F)c1cn2c(c(O)c1=O)C(=O)N1[C@H]3CC[C@H](C3)O[C@@H]1C2 [Formula I Form III, (2R,5S,13aR)-8-hydroxy-7,9-dioxo-N-(2,4,6-trifluorobenzyl)-2,3,4,5,7,9,13,13a-octahydro-2,5-methanopyrido[1′,2′:4,5]pyrazino[2,1-b][1,3]oxazepine-10-carboxamide] yielded an AUC(0-t) [2] of 27 ± 13 µM·h, a Cmax [2] of 6 ± 2 µM and a bioavailability [2] of 10 ± 6%.

For O=C(NCc1c(F)cc(F)cc1F)c1cn2c(c(O)c1=O)C(=O)N1[C@H]3CC[C@H](C3)O[C@@H]1C2 [Formula I, (2R,5S,13aR)-8-hydroxy-7,9-dioxo-N-(2,4,6-trifluorobenzyl)-2,3,4,5,7,9,13,13a-octahydro-2,5-methanopyrido[1′,2′:4,5]pyrazino[2,1-b][1,3]oxazepine-10-carboxamide], the “anti-viral activity (in words)” value (HIV) is given as “demonstrates anti-viral activity”.
